Assay results published in patent US4048431A, “Alkylated derivatives of antibiotic BM123γ” (American Cyanamid Company, priority 1975, dated 1977).

System: Escherichia coli US311
Experiment: in vivo protection of mice against lethal Escherichia coli US311 infection (single subcutaneous dose)
Set-up: species or system Escherichia coli US311 in Carworth Farms CF-1 mice
Conditions: Carworth Farms CF-1 mice, about 20 gm., infected intraperitoneally with lethal dose of E. coli US311 (10^-3 TSP dilution of 5 hour TSP blood culture)
Protocol: These new substances show high in vivo antibacterial activity in mice against Escherichia coli US311 when administered by a single subcutaneous dose to groups of Carworth Farms CF-1 mice, weight about 20 gm., infected intraperitoneally with a lethal dose of this bacteria in a 10^- 3 trypticase soy broth TSP dilution of a 5 hour TSP blood culture. In Table VI below is set forth the in vivo activity of typical products of this invention (prepared from the indicated carbonyl reagents) against Escherichia coli US311 in mice. The activity is expressed in terms of the ED50 or the dose in mg./kg. of body weight required to protect 50% of the mice against E. coli.

| Substance | ED50 (dose required to protect 50% of the mice against E. coli) |
| --- | --- |
| 2-ethyl-2-(3,4-dimethoxyphenyl)ethyl-BM123γ | 1.0 mg./kg. of body weight |
| 1-ethyl-3-chloropropyl-BM123γ | 0.12 mg./kg. of body weight |
| 2,4-dimethylcyclopentyl-BM123γ | 0.18 mg./kg. of body weight |
| 1-methyl-2-(N,N-dipropylamino)-ethyl-BM123γ | 0.3 mg./kg. of body weight |
| 1-methyldecyl-BM123γ | > 2 mg./kg. of body weight |
| 1-methyloctyl-BM123γ | 0.37 mg./kg. of body weight |
| 1-ethylhexyl-BM123γ | 0.18 mg./kg. of body weight |
| 2-ethylidenecyclohexyl-BM123γ | 0.12 mg./kg. of body weight |
| 2,4,4-trimethylcyclopentyl-BM123γ | 0.3 mg./kg. of body weight |
| 1-methyl-2-cyclopenten(-2-)-yl-ethyl-BM123γ | < 0.12 mg./kg. of body weight |
| 1-methyl-3-methoxypropen(-2-)yl-BM123γ | > 2.0 mg./kg. of body weight |
| decahydro-3-methyl-2-naphthyl-BM123γ | 0.37 mg./kg. of body weight |
| 1-methylhexyl-BM123γ | 0.38 mg./kg. of body weight |
| 1-propylbutyl-BM123γ | 0.25 mg./kg. of body weight |
| 1-methyl-penten(-4-)yl-BM123γ | 0.38 mg./kg. of body weight |
| (1-methylcyclo-3-hexenyl)methyl-BM123γ | 0.18 mg./kg. of body weight |
| decahydro-1-methyl-2-naphthyl-BM123γ | 0.25 mg./kg. of body weight |
| trans-2-methyl-2-butenyl-BM123γ | 0.18 mg./kg. of body weight |
| 1,4-dimethylpentyl-BM123γ | 0.12 mg./kg. of body weight |
| trans-2-methyl-2-pentenyl-BM123γ | 0.18 mg./kg. of body weight |
| 1-methyl-2-(4-chlorophenyl)ethyl-BM123γ | 0.25 mg./kg. of body weight |
| 1-methyl-3,3-dimethoxypropyl-BM123γ | 0.75 mg./kg. of body weight |
| 2-ethylhexyl-BM123γ | 0.37 mg./kg. of body weight |

| Substance | ED50 (dose required to protect 50% of the mice against E. coli) |
| --- | --- |
| 2-ethylcyclopentyl-BM123γ | 0.12 mg./kg. of body weight |
| methyl-BM123γ | 0.12 mg./kg. of body weight |
| 1,2,4-trimethylheptyl-BM123γ | 0.37 mg./kg. of body weight |
| 1-(3-pyridyl)ethyl-BM123γ | 0.75 mg./kg. of body weight |
| 3,3-dimethylcyclohexen(-4-)yl-BM123γ | 0.37 mg./kg. of body weight |
| 1-ethylbutyl-BM123γ | 0.39 mg./kg. of body weight |
| 1-methyl-5-pentenyl-BM123γ | 0.18 mg./kg. of body weight |
| 1-methyl-2-phenylethyl-BM123γ | 0.18 mg./kg. of body weight |
| 1-methyl-2-(3-chlorophenyl)ethyl-BM123γ | 0.38 mg./kg. of body weight |
| (2-carboxy-1-carboxymethyl)ethyl-BM123γ | 0.5 mg./kg. of body weight |
| ethyl-BM123γ | 0.38 mg./kg. of body weight |
| 1,3-dimethylhexyl-BM123γ | 0.5 mg./kg. of body weight |
| 1-methyl-3-(4-hydroxyphenyl)ethyl-BM123γ | 0.3 mg./kg. of body weight |
| 1-methylpropyl-BM123γ | < 0.12 mg./kg. of body weight |
| 2-cyclopentylcyclopentyl-BM123γ | 0.37 mg./kg. of body weight |
| cyclopentyl-BM123γ | 0.25 mg./kg. of body weight |
| 1-ethylpentyl-BM123γ | 0.25 mg./kg. of body weight |
| 1-methyltridecyl-BM123γ | 2.0 mg./kg. of body weight |
| 1,3-dimethylbutyl-BM123γ | < 0.12 mg./kg. of body weight |
| cyclobutyl-BM123γ | 0.38 mg./kg. of body weight |
| 2-methylcyclopentyl-BM123γ | 0.25 mg./kg. of body weight |
| 2,2-dimethylbutyl-BM123γ | 0.12 mg./kg. of body weight |
